Measurements published in patent US20190119200A1, “TERTIARY AMIDES AND METHOD OF USE” (AbbVie Inc., priority 2016, published 2019).

Experiments:
Format in all cases: cell-based
LPAR1 [1] = target: T1, LPAR1 (Homo sapiens, UniProt Q92633); assay: LPAR1 Arrestin Assay (arrestin reporter assay); conditions: U2OS cells stably expressing the LPAR1 receptor, 200 nM 18:1 LPA (EC80); for Emax: read-out: Maximum Inhibition
T1 construct: host or cells: U2OS
Experimental: One day prior to the experiment, frozen U2OS cells stably expressing the LPAR1 receptor (Life Technologies, Grand Island, N.Y., #K1519A) were thawed, centrifuged at 1,000 rpm for 5 minutes to remove DMSO, and resuspended in FreeStyle™ media (Gibco, Grand Island, N.Y.). Forty microliters of cells were plated into PDL-coated 384-well plates (Greiner Bio-One, Monroe, N.C.) at 10,000 cells/well, and then the plates were incubated overnight in humidified 5% CO2 at 37° C. Test compounds were dissolved in DMSO, and 12-point, 1:3 dilution CRCs were prepared in duplicate; daughter plates were prepared by aliquoting 0.8 μL/well of test compound dilutions into 384-well plates. On the day of the assay, the daughter plates were diluted to 6× stocks using HEPES-buffered HBSS, then 10 μL of 6× test compounds were added to the cells, and the plates were incubated at 37° C. for one hour. After this 1 hour incubation, 10 μL of a 6× stock of the LPAR1 agonist, 18:1 LPA (Avanti Polar Lipids, Alabaster, Ala.), was prepared in HEPES-buffered HBSS+0.1% fatty acid-free BSA (Sigma, St. Louis, Mo.). The 6×LPA was added to all wells for a final concentration of 200 nM, which corresponds to the 18:1 LPA EC80 in this arrestin assay. The final DMSO concentration in the assay plate was 0.1%, and the final BSA concentration was 0.02%. After addition of LPA to all wells, the assay plates were incubated in humidified 5% CO2 at 37° C. for five hours. During the incubation period, 6× dye from the LiveBLAzer™-FRET B/G with CCF4-AM kit (Life Technologies, Grand Island, N.Y.) was prepared according to manufacturers' instructions. At the end of the 5 hour compound incubation, 10 μL of 6× dye was added to each well, and the assay plate was incubated for two hours in the dark at room temperature. Throughout the assay procedure, all volume additions were performed with a Biomek® NX liquid handler (Beckman Coulter, Indianapolis, Ind.). After the 2 hour dye-load, fluorescence was measured on an EnVision® Multilabel Plate Reader (Perkin Elmer, Waltham, Mass.) with an excitation filter at 409/20 nm and emission filters at 460/40 nm and 530/30 nm. Data processing was performed as recommended by the LiveBLAzer™-FRET B/G with CCF4-AM kit manual; all test compound CRCs were performed in duplicate with n≥3.

LPAR1 [2] = target: T1, LPAR1; assay: LPAR1 FLIPR Assay; conditions: U2OS cells stably expressing LPAR1, LPA (EC80), Calcium 6 FLIPR dye; for Emax: read-out: Maximum Inhibition
Method in brief: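 Calcium flux read-out (515-575 nm, FLIPR) in LPAR1-expressing U2OS cells after LPA challenge at EC80, given 3 min after compound addition; cells carried Calcium 6 dye loaded 2 h at 37° C. Eleven-point 3-fold dilutions were fitted with a four-parameter Hill equation for IC50.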

LPAR1 [3] = target: T1, LPAR1; assay: IP-One HTRF Assay; conditions: U2OS cells stably expressing LPAR1, LPA stimulation, IP-One Tb HTRF kit; for Emax: read-out: Maximum Inhibition
Experimental: U2OS cells stably expressing LPAR1 (Life Technologies #K1519A) were plated at 20000 cells/well in growth medium (McCoy's 5A(Life Technologies #16600-082)) with 10% dFBS (Life Technologies #26400-036), 0.1 mM non-essential amino acids, 25 mM HEPES, 1 mM sodium pyruvate, 1% penicillin/streptomycin, 50 μg/mL hygromycin, and 100 μg/mL Geneticin® in tissue culture treated 384-well white plates (Greiner #781080) in humidified 5% CO2 at 37° C. overnight. On the day of the assay, culture medium was replaced with 30 μL/well of McCoy's 5A with 0.1% BSA. Cells were incubated in humidified 5% CO2 at 37° C. for 3 more hours. Compounds were 3-fold serial diluted from 2 mM for 11-points using dimethyl sulfoxide. 1 μL of compound in DMSO was diluted in 50 μL stimulation buffer from an IP-One Tb HTRF kit (Cisbio #62IPAPEB) immediately before assay. 15 μL/well of 1.33× compound in stimulation buffer was added to cells after removal of culture medium. After 20 minutes of incubation at 37° C., 5 μL/well of 8 μM LPA diluted in stimulation buffer with 0.1% fatty acid free BSA was added to cells. […]. To EC100 wells were added 4×20 μM LPA. To the cells were added 5 μL/well IP1-d2 conjugate and 5 μLwell IP1-K antibody after 2 hours of incubation at 37° C. Cells were incubated at room temperature for 1 hour (protected from light). The plate was then read at 665 nm and 615 nm using an EnVision® Multilabel Plate Reader. IC50 values were calculated from curve fits of the ratio data using a four-parameter logistic Hill equation (Assay Explorer 3.3 Client).

T1 sequence (Q92633 whole entry): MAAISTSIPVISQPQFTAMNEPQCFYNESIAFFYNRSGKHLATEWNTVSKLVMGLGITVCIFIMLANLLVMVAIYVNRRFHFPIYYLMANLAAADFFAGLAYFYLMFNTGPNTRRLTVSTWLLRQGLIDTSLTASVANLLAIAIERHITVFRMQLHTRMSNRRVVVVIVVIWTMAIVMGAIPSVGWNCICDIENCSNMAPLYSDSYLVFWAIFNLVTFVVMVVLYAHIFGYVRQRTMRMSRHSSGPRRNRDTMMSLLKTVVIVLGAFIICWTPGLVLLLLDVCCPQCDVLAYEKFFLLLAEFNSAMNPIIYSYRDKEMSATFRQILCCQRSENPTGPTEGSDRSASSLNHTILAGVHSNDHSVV

Row | Structure (SMILES) | IC50 (LPAR1 [1]) [nM] | Emax (LPAR1 [1]) [%] | IC50 (LPAR1 [2]) [nM] | Emax (LPAR1 [2]) [%] | IC50 (LPAR1 [3]) [nM] | Emax (LPAR1 [3]) [%]
1 | COc1cc(C(=O)N(CCCc2ccccc2)CCSC(C)CC(=O)O)cc(OC)c1C (stereo not drawn) [Example 62, 3-({2-[(3,5-dimethoxy-4-methylbenzoyl)(3-phenylpropyl)amino]ethyl}sulfanyl)butanoic Acid] | 39 | 114 | 29 | 97 | 291 | 75
2 | COc1cc(C(=O)N(CCCc2ccccc2)CCC[C@@H](C)C(=O)O)cc(OC)c1C (single isomer, unassigned) [Example 77] | 5 | 102 | 20 | 100 | 77 | 84
3 | COc1cc(C(=O)N(CCCc2ccccc2)CCSCCC(=O)O)cc(OC)c1C [Example 60, 3-({2-[(3,5-dimethoxy-4-methylbenzoyl)(3-phenylpropyl)amino]ethyl}sulfanyl)propanoic Acid] | 308 | 110 | 20 | 95 | 208 | 82
4 | COc1cc(C(=O)N(CCCc2ccccc2)CCOCC(=O)O)cc(OC)c1C [Example 6, {2-[(3,5-dimethoxy-4-methylbenzoyl)(3-phenylpropyl)amino]ethoxy}acetic Acid] | 126 | 130 | 11 | 94 | 183 | 97
5 | COc1cc(OC)cc(C(=O)N(CCCCC(=O)O)CCCc2cccc(Cl)c2)c1 [Example 91, 5-{[3-(3-chlorophenyl)propyl](3,5-dimethoxybenzoyl)amino}pentanoic Acid] | 293 | 120 | 25 | 89 | 285 | 70
6 | COc1cc(C(=O)N(CCCc2ccccc2)CCCC(C)(C)C(=O)O)cc(OC)c1C [Example 57, 5-[(3,5-dimethoxy-4-methylbenzoyl)(3-phenylpropyl)amino]-2,2-dimethylpentanoic Acid] | 4 | 103 | 35 | 100 | 62 | 95
7 | COc1cc(C(=O)N(CCCCC(=O)O)CCCc2ccc(F)cc2)cc(OC)c1C [Example 34, 5-{(3,5-dimethoxy-4-methylbenzoyl)[3-(4-fluorophenyl)propyl]amino}pentanoic Acid] | 391 | 115 | 24 | 96 | 880 | 70
8 | COc1cc(C(=O)N(CCCCC(=O)O)CCCc2ccccc2)cc(OC)c1OC [Example 10, 5-[(3-phenylpropyl)(3,4,5-trimethoxybenzoyl)amino]pentanoic Acid] | 674 | 114 | 64 | 92 | 333 | 77
9 | COc1cc(C(=O)N(CCCc2ccccc2)CC(=O)NC2(C(=O)O)CC2)cc(OC)c1C [Example 3, 1-{[N-(3,5-dimethoxy-4-methylbenzoyl)-N-(3-phenylpropyl)glycyl]amino}cyclopropane-1-carboxylic Acid] | 2230 | 110 | 71 | 52 | 4270 | 76
10 | COc1cc(C(=O)N(CCCc2cccc(F)c2)CCSCC(=O)O)cc(OC)c1C [Example 117, [(2-{(3,5-dimethoxy-4-methylbenzoyl)[3-(3-fluorophenyl)propyl]amino}ethyl)sulfanyl]acetic Acid] | 103 | 116 | 10 | 93 | 473 | 85
11 | COc1cc(C(=O)N(CCCc2ccccc2F)CCOCC(=O)O)cc(OC)c1C [Example 110, (2-{(3,5-dimethoxy-4-methylbenzoyl)[3-(2-fluorophenyl)propyl]amino}ethoxy)acetic Acid] | 706 | 110 | 16 | 90 | 902 | 82
12 | COc1cc(C(=O)N(CCCCC(=O)NS(C)(=O)=O)CCCc2ccccc2)cc(OC)c1C [Example 111, N-{5-[(methanesulfonyl)amino]-5-oxopentyl}-3,5-dimethoxy-4-methyl-N-(3-phenylpropyl)benzamide] | 93 | 116 | 28 | 95 | 570 | 80
13 | COc1cc(C(=O)N(CCCc2ccc(C)o2)CCSCC(=O)O)cc(OC)c1C [Example 132, [(2-{(3,5-dimethoxy-4-methylbenzoyl)[3-(5-methylfuran-2-yl)propyl]amino}ethyl)sulfanyl]acetic Acid] | 490 | 126 | 10 | 86 | 220 | 80
14 | COc1cc(C(=O)N(CCCc2cccc(Cl)c2)CCSCC(=O)O)cc(OC)c1C [Example 122, [(2-{[3-(3-chlorophenyl)propyl](3,5-dimethoxy-4-methylbenzoyl)amino}ethyl)sulfanyl]acetic Acid] | 152 | 127 | 10 | 95 | 134 | 78
15 | COc1cc(C(=O)N(CCCc2cccc(Cl)c2)CCOCC(=O)O)cc(OC)c1C [Example 109, (2-{[3-(3-chlorophenyl)propyl](3,5-dimethoxy-4-methylbenzoyl)amino}ethoxy)acetic Acid] | 139 | 111 | 15 | 93 | 809 | 85
16 | COc1cc(C(=O)N(CCCCC(=O)O)CCCc2ccc(Cl)o2)cc(OC)c1C [Example 185, 5-{[3-(5-chlorofuran-2-yl)propyl](3,5-dimethoxy-4-methylbenzoyl)amino}pentanoic Acid] | 288 | 122 | 13 | 91 | 325 | 73
17 | COc1cc(C(=O)N(CCCCC(=O)O)CCCc2ccccc2)cc(OC)c1C1CC1 [Example 35, 5-[(4-cyclopropyl-3,5-dimethoxybenzoyl)(3-phenylpropyl)amino]pentanoic Acid] | 13 | 103 | 32 | 98 | 59 | 94
18 | COc1cc(C(=O)N(CCCCC(=O)O)CCCc2ccccc2)cc(OC)c1C [Example 4, 5-[(3,5-dimethoxy-4-methylbenzoyl)(3-phenylpropyl)amino]pentanoic Acid] | 27 | 101 | 14 | 98 | 115 | 93
